Measured values from patent US11820782B2, “Salt forms of amino pyrazine purine based selective kinase inhibitor” (FTG BIO LLC, priority 2018, dated 2023).

Tests used:
[1] = 1 week stability of shortlisted salts at 40° C./75% RH, open; assay type: physicochemical; details: after 7 days at 40° C./75% RH, open
[2] = Equilibrium solubility in pH 6.8 0.01M phosphate buffer by HPLC; assay type: physicochemical; details: pH6.8 0.01M potassium dihydrogen phosphate buffer

Substance: Fumarate
- % purity ([1]; HPLC): 95.81%
- XRD ([1]; physical form vs initial): Same as initial form
- Solubility in pH 6.8 buffer [2]: 2.62 mg/mL
